Measured values published in patent publication US8709747B2, “Biphotonic photosensitizers, nanoparticles containing the same and their use as drugs” (Centre National de la Recherche Scientifique, priority 2009, dated 2014).

Legend:
[1] = Quantum yield for singlet oxygen generation; assay type: physicochemical; settings: in toluene
[2] = Photophysical properties (absorption, emission, fluorescence) in solution or dispersion; assay type: physicochemical; settings: for Φ / εmax / λmax^abs / λmax^em / quantum yield for fluorescence: in ethanol; for quantum yield for fluorescence: orange emission; for Φf (fluorescence quantum yield): relative to quinine in 0.5 M H2SO4
[3] = Two-photon absorption cross section; assay type: physicochemical; settings: for two-photon absorption cross section: at 720 nm; for λmax^TPA / σ2^max: table titled in ethanol
[4] = spectral range of interest; Drobizhev et al.; cited from earlier work

Q: Which “quantum yield for singulet oxygen generation” value [1] does the source give for `CCN(CCO)c1ccc(/C=C/c2ccc(C#Cc3ccc4c(c3)C(CCOCCOCCOC)(CCOCCOCCOC)c3cc(C#Cc5ccc(/C=C/c6ccc(N(CC)CCO)cc6)s5)ccc3-4)s2)cc1` [Photosensitizer 6b] here?
A: 22%

Q: And the Φ [2]?
A: 0.33

Q: What about the εmax [2] of the same compound?
A: 0.98 10^5 M^−1cm^−1

Q: And the “λmax^abs” value [2]?
A: 434 nm

Q: And the “λmax^em” value [2]?
A: 575 nm

Q: And the “quantum yield for fluorescence” value [2]?
A: 65%

Q: What about the “two-photon absorption cross section” value [3] of the same compound?
A: 1530 GM

Q: What about the “λmax^TPA” value [3] of the same compound?
A: 730 nm

Q: What about the “σ2^max” value [3] of the same compound?
A: 1530 GM

Q: With `C1=Cc2nc1c(-c1ccccc1)c1ccc([nH]1)c(-c1ccccc1)c1nc(c(-c3ccccc3)c3ccc([nH]3)c2-c2ccccc2)C=C1` [tetraphenylporphine] as the compound, how does the “two-photon absorption (TPA) cross-section” value [4] read?
A: 15 GM

Q: Which “quantum yield for singulet oxygen generation” value [1] does the source give for `CCCCC1(CCCC)c2cc(C#Cc3ccc(/C=C/c4ccc(N(CC)CCO)cc4)s3)ccc2-c2ccc(C#Cc3ccc(/C=C/c4ccc(N(CC)CCO)cc4)s3)cc21` [Photosensitizer 6a] here?
A: 22%

Q: And the Stokes shift ([2]; AcOEt)?
A: 4605 cm⁻¹

Q: And the “knr (non-radiative decay rate)” value ([2]; AcOEt)?
A: 0.34 10^9 s^−1

Q: And the “kr (radiative decay rate)” value ([2]; AcOEt)?
A: 0.36 10^9 s^−1

Q: What about the “r (fluorescence anisotropy)” value ([2]; AcOEt) of the same compound?
A: 0.12

Q: And the λabs ([2]; AcOEt)?
A: 435 nm

Q: And the λem ([2]; AcOEt)?
A: 544 nm

Q: And the τ ([2]; AcOEt)?
A: 1.42 ns

Q: And the “τo (radiative lifetime)” value ([2]; AcOEt)?
A: 2.77 ns

Q: And the “Φf (fluorescence quantum yield)” value ([2]; AcOEt)?
A: 0.51

Q: And the Stokes shift ([2]; Acetone)?
A: 5950 cm⁻¹

Q: What about the “knr (non-radiative decay rate)” value ([2]; Acetone) of the same compound?
A: 0.89 10^9 s^−1

Q: And the “kr (radiative decay rate)” value ([2]; Acetone)?
A: 0.25 10^9 s^−1

Q: What about the “r (fluorescence anisotropy)” value ([2]; Acetone) of the same compound?
A: 0.13

Q: What about the λabs ([2]; Acetone) of the same compound?
A: 437.5 nm

Q: What about the λem ([2]; Acetone) of the same compound?
A: 591.5 nm

Q: What about the τ ([2]; Acetone) of the same compound?
A: 0.88 ns

Q: What about the “τo (radiative lifetime)” value ([2]; Acetone) of the same compound?
A: 4.02 ns

Q: And the “Φf (fluorescence quantum yield)” value ([2]; Acetone)?
A: 0.22

Q: What about the Stokes shift ([2]; Bu2O) of the same compound?
A: 2700 cm⁻¹

Q: What about the “knr (non-radiative decay rate)” value ([2]; Bu2O) of the same compound?
A: 0.45 10^9 s^−1

Q: And the “kr (radiative decay rate)” value ([2]; Bu2O)?
A: 0.56 10^9 s^−1

Q: And the “r (fluorescence anisotropy)” value ([2]; Bu2O)?
A: 0.19

Q: And the λabs ([2]; Bu2O)?
A: 433.5 nm

Q: What about the λem ([2]; Bu2O) of the same compound?
A: 491 nm

Q: And the τ ([2]; Bu2O)?
A: 0.99 ns

Q: And the “τo (radiative lifetime)” value ([2]; Bu2O)?
A: 1.79 ns

Q: And the “Φf (fluorescence quantum yield)” value ([2]; Bu2O)?
A: 0.55

Q: What about the Stokes shift ([2]; CH3CN) of the same compound?
A: 6355 cm⁻¹

Q: What about the “knr (non-radiative decay rate)” value ([2]; CH3CN) of the same compound?
A: 0.92 10^9 s^−1

Q: And the “kr (radiative decay rate)” value ([2]; CH3CN)?
A: 0.05 10^9 s^−1

Q: And the “r (fluorescence anisotropy)” value ([2]; CH3CN)?
A: 0.21

Q: What about the λabs ([2]; CH3CN) of the same compound?
A: 436.5 nm

Q: And the λem ([2]; CH3CN)?
A: 604 nm

Q: And the τ ([2]; CH3CN)?
A: 1.03 ns

Q: What about the “τo (radiative lifetime)” value ([2]; CH3CN) of the same compound?
A: 19.99 ns

Q: What about the “Φf (fluorescence quantum yield)” value ([2]; CH3CN) of the same compound?
A: 0.052

Q: What about the Stokes shift ([2]; CHCl3) of the same compound?
A: 4035 cm⁻¹

Q: What about the “knr (non-radiative decay rate)” value ([2]; CHCl3) of the same compound?
A: 0.43 10^9 s^−1

Q: And the “kr (radiative decay rate)” value ([2]; CHCl3)?
A: 0.39 10^9 s^−1

Q: And the “r (fluorescence anisotropy)” value ([2]; CHCl3)?
A: 0.15

Q: And the λabs ([2]; CHCl3)?
A: 431.5 nm

Q: What about the λem ([2]; CHCl3) of the same compound?
A: 522.5 nm

Q: And the τ ([2]; CHCl3)?
A: 1.22 ns

Q: What about the “τo (radiative lifetime)” value ([2]; CHCl3) of the same compound?
A: 2.54 ns

Q: And the “Φf (fluorescence quantum yield)” value ([2]; CHCl3)?
A: 0.48

Q: What about the Stokes shift ([2]; DCM) of the same compound?
A: 4870 cm⁻¹

Q: What about the “knr (non-radiative decay rate)” value ([2]; DCM) of the same compound?
A: 0.27 10^9 s^−1

Q: What about the “kr (radiative decay rate)” value ([2]; DCM) of the same compound?
A: 0.42 10^9 s^−1

Q: What about the “r (fluorescence anisotropy)” value ([2]; DCM) of the same compound?
A: 0.10

Q: What about the λabs ([2]; DCM) of the same compound?
A: 433.5 nm

Q: And the λem ([2]; DCM)?
A: 549.5 nm

Q: What about the τ ([2]; DCM) of the same compound?
A: 1.43 ns

Q: And the “τo (radiative lifetime)” value ([2]; DCM)?
A: 2.35 ns

Q: What about the “Φf (fluorescence quantum yield)” value ([2]; DCM) of the same compound?
A: 0.61

Q: And the Stokes shift ([2]; DMSO)?
A: 6090 cm⁻¹

Q: And the “knr (non-radiative decay rate)” value ([2]; DMSO)?
A: 1.94 10^9 s^−1

Q: What about the “kr (radiative decay rate)” value ([2]; DMSO) of the same compound?
A: 0.10 10^9 s^−1

Q: What about the “r (fluorescence anisotropy)” value ([2]; DMSO) of the same compound?
A: 0.28

Q: What about the λabs ([2]; DMSO) of the same compound?
A: 448.5 nm

Q: What about the λem ([2]; DMSO) of the same compound?
A: 617 nm

Q: What about the τ ([2]; DMSO) of the same compound?
A: 0.49 ns

Q: And the “τo (radiative lifetime)” value ([2]; DMSO)?
A: 9.7 ns

Q: What about the “Φf (fluorescence quantum yield)” value ([2]; DMSO) of the same compound?
A: 0.051

Q: What about the Stokes shift ([2]; THF) of the same compound?
A: 4865 cm⁻¹

Q: What about the “knr (non-radiative decay rate)” value ([2]; THF) of the same compound?
A: 0.32 10^9 s^−1

Q: And the “kr (radiative decay rate)” value ([2]; THF)?
A: 0.34 10^9 s^−1

Q: What about the “r (fluorescence anisotropy)” value ([2]; THF) of the same compound?
A: 0.12

Q: And the λabs ([2]; THF)?
A: 437 nm

Q: What about the λem ([2]; THF) of the same compound?
A: 555 nm

Q: What about the τ ([2]; THF) of the same compound?
A: 1.51 ns

Q: What about the “τo (radiative lifetime)” value ([2]; THF) of the same compound?
A: 2.93 ns

Q: What about the “Φf (fluorescence quantum yield)” value ([2]; THF) of the same compound?
A: 0.51

Q: And the Stokes shift ([2]; Toluene)?
A: 2650 cm⁻¹

Q: What about the “knr (non-radiative decay rate)” value ([2]; Toluene) of the same compound?
A: 0.56 10^9 s^−1

Q: And the “kr (radiative decay rate)” value ([2]; Toluene)?
A: 0.52 10^9 s^−1

Q: And the “r (fluorescence anisotropy)” value ([2]; Toluene)?
A: 0.16

Q: What about the λabs ([2]; Toluene) of the same compound?
A: 436 nm

Q: And the λem ([2]; Toluene)?
A: 493 nm

Q: And the τ ([2]; Toluene)?
A: 0.93 ns

Q: What about the “τo (radiative lifetime)” value ([2]; Toluene) of the same compound?
A: 1.94 ns

Q: And the “Φf (fluorescence quantum yield)” value ([2]; Toluene)?
A: 0.48

Q: And the Φ [2]?
A: 0.65

Q: What about the εmax [2] of the same compound?
A: 1.04 10^5 M^−1cm^−1

Q: And the “λmax^abs” value [2]?
A: 432 nm

Q: And the “λmax^em” value [2]?
A: 561 nm

Q: And the “quantum yield for fluorescence” value [2]?
A: 65%

Q: What about the “two-photon absorption cross section” value [3] of the same compound?
A: 1340 GM

Q: What about the “λmax^TPA” value [3] of the same compound?
A: 730 nm

Q: What about the “σ2^max” value [3] of the same compound?
A: 1204 GM
